Where “and” joins values, the source holds several entries; their conditions need not be identical. Equal entries are not always repeated.
Conditions: 303.16 K, Liquid, Vibrating tube method

CCCCCC(=O)OCC(COC(=O)CCCCC)(COC(=O)CCCCC)COC(=O)CCCCC [pentaerythritol tetrahexanoate]
Conditions | mass density
243.6 kPa | 988.4 kg/m3
243.8 kPa | 988.7 kg/m3
244.8 kPa | 988.5 kg/m3 and 988.6 kg/m3
245.2 kPa | 988.4 kg/m3 and 988.6 kg/m3
245.3 kPa | 988.5 kg/m3
245.5 kPa | 988.5 kg/m3
245.9 kPa | 988.5 kg/m3 and 988.6 kg/m3
246.2 kPa | 988.5 kg/m3
246.6 kPa | 988.5 kg/m3
246.7 kPa | 988.4 kg/m3
247.3 kPa | 988.6 kg/m3 and 988.5 kg/m3
247.4 kPa | 988.4 kg/m3
248.5 kPa | 988.5 kg/m3
248.8 kPa | 988.5 kg/m3
249.2 kPa | 988.4 kg/m3
249.3 kPa | 988.6 kg/m3
250.7 kPa | 988.5 kg/m3
251.1 kPa | 988.4 kg/m3
251.2 kPa | 988.6 kg/m3
251.4 kPa | 988.5 kg/m3
251.6 kPa | 988.5 kg/m3
251.9 kPa | 988.5 kg/m3
252.1 kPa | 988.5 kg/m3
252.3 kPa | 988.5 kg/m3
252.5 kPa | 988.6 kg/m3
252.6 kPa | 988.4 kg/m3
252.8 kPa | 988.6 kg/m3
253 kPa | 988.4 kg/m3
253.5 kPa | 988.5 kg/m3
253.7 kPa | 988.4 kg/m3
254 kPa | 988.5 kg/m3
254.2 kPa | 988.5 kg/m3
254.6 kPa | 988.4 kg/m3
254.7 kPa | 988.5 kg/m3
255.1 kPa | 988.6 kg/m3
255.2 kPa | 988.6 kg/m3
255.4 kPa | 988.5 kg/m3
255.6 kPa | 988.5 kg/m3
255.9 kPa | 988.5 kg/m3
256.3 kPa | 988.5 kg/m3
256.5 kPa | 988.5 kg/m3
256.6 kPa | 988.5 kg/m3
257 kPa | 988.6 kg/m3 and 988.5 kg/m3
257.3 kPa | 988.6 kg/m3
257.5 kPa | 988.5 kg/m3
257.8 kPa | 988.6 kg/m3 and 988.5 kg/m3
258 kPa | 988.5 kg/m3
258.4 kPa | 988.4 kg/m3
258.5 kPa | 988.5 kg/m3
258.7 kPa | 988.5 kg/m3
259.1 kPa | 988.7 kg/m3
259.4 kPa | 988.6 kg/m3 and 988.5 kg/m3
259.6 kPa | 988.6 kg/m3
259.8 kPa | 988.5 kg/m3
260.1 kPa | 988.5 kg/m3
260.3 kPa | 988.6 kg/m3
260.4 kPa | 988.4 kg/m3
260.8 kPa | 988.5 kg/m3 and 988.4 kg/m3
261.1 kPa | 988.5 kg/m3
261.3 kPa | 988.6 kg/m3
261.8 kPa | 988.5 kg/m3
262.5 kPa | 988.4 kg/m3 and 988.5 kg/m3
262.7 kPa | 988.5 kg/m3
263.1 kPa | 988.5 kg/m3
263.2 kPa | 988.6 kg/m3 and 988.5 kg/m3
263.7 kPa | 988.5 kg/m3
264.1 kPa | 988.5 kg/m3
264.3 kPa | 988.5 kg/m3
264.4 kPa | 988.6 kg/m3 and 988.5 kg/m3
265 kPa | 988.6 kg/m3
265.1 kPa | 988.5 kg/m3
265.3 kPa | 988.5 kg/m3
265.7 kPa | 988.5 kg/m3
266.2 kPa | 988.6 kg/m3
266.3 kPa | 988.5 kg/m3
266.4 kPa | 988.5 kg/m3 and 988.6 kg/m3
266.7 kPa | 988.5 kg/m3 and 988.6 kg/m3
266.9 kPa | 988.6 kg/m3
267.1 kPa | 988.6 kg/m3
267.4 kPa | 988.4 kg/m3
267.7 kPa | 988.6 kg/m3
267.9 kPa | 988.5 kg/m3
268.3 kPa | 988.5 kg/m3
268.6 kPa | 988.5 kg/m3 and 988.4 kg/m3
268.8 kPa | 988.5 kg/m3
269 kPa | 988.4 kg/m3
269.1 kPa | 988.5 kg/m3
270 kPa | 988.5 kg/m3
270.2 kPa | 988.5 kg/m3
270.7 kPa | 988.6 kg/m3
271 kPa | 988.6 kg/m3
271.2 kPa | 988.5 kg/m3
271.4 kPa | 988.6 kg/m3
271.6 kPa | 988.6 kg/m3
272.1 kPa | 988.6 kg/m3 and 988.5 kg/m3
272.4 kPa | 988.6 kg/m3
274.2 kPa | 988.6 kg/m3
274.7 kPa | 988.6 kg/m3 and 988.5 kg/m3
275 kPa | 988.5 kg/m3
275.2 kPa | 988.5 kg/m3
275.6 kPa | 988.5 kg/m3
275.7 kPa | 988.6 kg/m3
275.9 kPa | 988.5 kg/m3
276.1 kPa | 988.4 kg/m3
276.4 kPa | 988.6 kg/m3
276.8 kPa | 988.4 kg/m3 and 988.5 kg/m3
277.3 kPa | 988.5 kg/m3
277.5 kPa | 988.5 kg/m3
277.6 kPa | 988.5 kg/m3
278 kPa | 988.6 kg/m3
278.2 kPa | 988.5 kg/m3
278.3 kPa | 988.6 kg/m3
279 kPa | 988.4 kg/m3 and 988.5 kg/m3
279.2 kPa | 988.5 kg/m3
279.5 kPa | 988.6 kg/m3
279.9 kPa | 988.6 kg/m3
280.2 kPa | 988.5 kg/m3
280.6 kPa | 988.5 kg/m3
280.8 kPa | 988.6 kg/m3
280.9 kPa | 988.6 kg/m3
281.3 kPa | 988.5 kg/m3
281.8 kPa | 988.5 kg/m3
282 kPa | 988.6 kg/m3
282.3 kPa | 988.6 kg/m3
282.5 kPa | 988.6 kg/m3
282.7 kPa | 988.5 kg/m3
283.2 kPa | 988.5 kg/m3
283.5 kPa | 988.6 kg/m3
283.7 kPa | 988.5 kg/m3
283.9 kPa | 988.6 kg/m3
284.9 kPa | 988.6 kg/m3
285.3 kPa | 988.4 kg/m3
285.6 kPa | 988.6 kg/m3
286.1 kPa | 988.5 kg/m3 and 988.6 kg/m3
286.5 kPa | 988.6 kg/m3
287 kPa | 988.6 kg/m3
287.2 kPa | 988.6 kg/m3
287.5 kPa | 988.5 kg/m3
287.9 kPa | 988.5 kg/m3
288.6 kPa | 988.5 kg/m3
289.8 kPa | 988.5 kg/m3
290.7 kPa | 988.5 kg/m3
291 kPa | 988.6 kg/m3
291.5 kPa | 988.5 kg/m3
291.7 kPa | 988.6 kg/m3

Reference: the NIST ThermoML archive (doi:10.1021/je060271a)
